Laboratory results from ChEMBL document CHEMBL4196076, “An access to a library of novel triterpene derivatives with a promising pharmacological potential by Ugi and Passerini multicomponent reactions” (Eur J Med Chem, 2018).

System: HT-29
Test: Cytotoxicity against human HT-29 cells after 96 hrs by sulforhodamine-B assay
Type: functional, cell-based
Conditions: HT-29, 96 h

Row | SMILES | EC50 [µM]
1 | C=CCN(CC(=O)NCc1ccccc1)C(=O)[C@]12CCC(C)(C)C[C@H]1C1=CC[C@@H]3[C@@]4(C)CC[C@H](O)C(C)(C)[C@@H]4CC[C@@]3(C)[C@]1(C)CC2 | > 30
2 | CC1(C)CC[C@]2(C(=O)N(CC(=O)NC(C)(C)C)Cc3ccccc3)CC[C@]3(C)C(=CC[C@@H]4[C@@]5(C)CC[C@H](O)C(C)(C)[C@@H]5CC[C@]43C)[C@@H]2C1 | 11.5
3 | CC(=O)O[C@H]1CC[C@]2(C)[C@H]3CC=C4[C@@H]5CC(C)(C)CC[C@]5(C(=O)N(C)CC(=O)NC(C)(C)C)CC[C@@]4(C)[C@]3(C)CC[C@H]2C1(C)C | 23.7
4 | CC1(C)CC[C@]2(C(=O)N(CC(=O)NCc3ccccc3)Cc3ccccc3)CC[C@]3(C)C(=CC[C@@H]4[C@@]5(C)CC[C@H](O)C(C)(C)[C@@H]5CC[C@]43C)[C@@H]2C1 | > 30
5 | CC(C)NC(=O)CN(Cc1ccoc1)C(=O)[C@]12CCC(C)(C)C[C@H]1C1=CC[C@@H]3[C@@]4(C)CC[C@H](O)C(C)(C)[C@@H]4CC[C@@]3(C)[C@]1(C)CC2 | 4.9

System: MCF7
Test: Cytotoxicity against human MCF7 cells after 96 hrs by sulforhodamine-B assay
Type: functional, cell-based
Conditions: MCF7, 96 h

Row | SMILES | EC50 [µM]
6 | C=CCN(CC(=O)NCc1ccccc1)C(=O)[C@]12CCC(C)(C)C[C@H]1C1=CC[C@@H]3[C@@]4(C)CC[C@H](O)C(C)(C)[C@@H]4CC[C@@]3(C)[C@]1(C)CC2 | > 30
7 | CC1(C)CC[C@]2(C(=O)N(CC(=O)NC(C)(C)C)Cc3ccccc3)CC[C@]3(C)C(=CC[C@@H]4[C@@]5(C)CC[C@H](O)C(C)(C)[C@@H]5CC[C@]43C)[C@@H]2C1 | 14.8
8 | CC(=O)O[C@H]1CC[C@]2(C)[C@H]3CC=C4[C@@H]5CC(C)(C)CC[C@]5(C(=O)N(C)CC(=O)NC(C)(C)C)CC[C@@]4(C)[C@]3(C)CC[C@H]2C1(C)C | 5.7
9 | CC1(C)CC[C@]2(C(=O)N(CC(=O)NCc3ccccc3)Cc3ccccc3)CC[C@]3(C)C(=CC[C@@H]4[C@@]5(C)CC[C@H](O)C(C)(C)[C@@H]5CC[C@]43C)[C@@H]2C1 | > 30
10 | CC(C)NC(=O)CN(Cc1ccoc1)C(=O)[C@]12CCC(C)(C)C[C@H]1C1=CC[C@@H]3[C@@]4(C)CC[C@H](O)C(C)(C)[C@@H]4CC[C@@]3(C)[C@]1(C)CC2 | 4.9

System: 518A2
Test: Cytotoxicity against human 518A2 cells after 96 hrs by sulforhodamine-B assay
Type: functional, cell-based
Conditions: 518A2, 96 h

Row | SMILES | EC50 [µM]
11 | C=CCN(CC(=O)NCc1ccccc1)C(=O)[C@]12CCC(C)(C)C[C@H]1C1=CC[C@@H]3[C@@]4(C)CC[C@H](O)C(C)(C)[C@@H]4CC[C@@]3(C)[C@]1(C)CC2 | > 30
12 | CC1(C)CC[C@]2(C(=O)N(CC(=O)NC(C)(C)C)Cc3ccccc3)CC[C@]3(C)C(=CC[C@@H]4[C@@]5(C)CC[C@H](O)C(C)(C)[C@@H]5CC[C@]43C)[C@@H]2C1 | 11.4
13 | CC(=O)O[C@H]1CC[C@]2(C)[C@H]3CC=C4[C@@H]5CC(C)(C)CC[C@]5(C(=O)N(C)CC(=O)NC(C)(C)C)CC[C@@]4(C)[C@]3(C)CC[C@H]2C1(C)C | 8.8
14 | CC1(C)CC[C@]2(C(=O)N(CC(=O)NCc3ccccc3)Cc3ccccc3)CC[C@]3(C)C(=CC[C@@H]4[C@@]5(C)CC[C@H](O)C(C)(C)[C@@H]5CC[C@]43C)[C@@H]2C1 | > 30
15 | CC(C)NC(=O)CN(Cc1ccoc1)C(=O)[C@]12CCC(C)(C)C[C@H]1C1=CC[C@@H]3[C@@]4(C)CC[C@H](O)C(C)(C)[C@@H]4CC[C@@]3(C)[C@]1(C)CC2 | 5.5

System: A2780
Test: Cytotoxicity against human A2780 cells after 96 hrs by sulforhodamine-B assay
Type: functional, cell-based
Conditions: A2780, 96 h

Row | SMILES | EC50 [µM]
16 | C=CCN(CC(=O)NCc1ccccc1)C(=O)[C@]12CCC(C)(C)C[C@H]1C1=CC[C@@H]3[C@@]4(C)CC[C@H](O)C(C)(C)[C@@H]4CC[C@@]3(C)[C@]1(C)CC2 | 12.9
17 | CC1(C)CC[C@]2(C(=O)N(CC(=O)NC(C)(C)C)Cc3ccccc3)CC[C@]3(C)C(=CC[C@@H]4[C@@]5(C)CC[C@H](O)C(C)(C)[C@@H]5CC[C@]43C)[C@@H]2C1 | 13.5
18 | CC(=O)O[C@H]1CC[C@]2(C)[C@H]3CC=C4[C@@H]5CC(C)(C)CC[C@]5(C(=O)N(C)CC(=O)NC(C)(C)C)CC[C@@]4(C)[C@]3(C)CC[C@H]2C1(C)C | 4.1
19 | CC1(C)CC[C@]2(C(=O)N(CC(=O)NCc3ccccc3)Cc3ccccc3)CC[C@]3(C)C(=CC[C@@H]4[C@@]5(C)CC[C@H](O)C(C)(C)[C@@H]5CC[C@]43C)[C@@H]2C1 | > 30
20 | CC(C)NC(=O)CN(Cc1ccoc1)C(=O)[C@]12CCC(C)(C)C[C@H]1C1=CC[C@@H]3[C@@]4(C)CC[C@H](O)C(C)(C)[C@@H]4CC[C@@]3(C)[C@]1(C)CC2 | 5.9

System: A549
Test: Cytotoxicity against human A549 cells after 96 hrs by sulforhodamine-B assay
Type: functional, cell-based
Conditions: A549, 96 h

Row | SMILES | EC50 [µM]
21 | C=CCN(CC(=O)NCc1ccccc1)C(=O)[C@]12CCC(C)(C)C[C@H]1C1=CC[C@@H]3[C@@]4(C)CC[C@H](O)C(C)(C)[C@@H]4CC[C@@]3(C)[C@]1(C)CC2 | > 30

System: FaDu
Test: Cytotoxicity against human FADU cells after 96 hrs by sulforhodamine-B assay
Type: functional, cell-based
Conditions: not given

Row | SMILES | EC50 [µM]
22 | C=CCN(CC(=O)NCc1ccccc1)C(=O)[C@]12CCC(C)(C)C[C@H]1C1=CC[C@@H]3[C@@]4(C)CC[C@H](O)C(C)(C)[C@@H]4CC[C@@]3(C)[C@]1(C)CC2 | > 30
23 | CC1(C)CC[C@]2(C(=O)N(CC(=O)NC(C)(C)C)Cc3ccccc3)CC[C@]3(C)C(=CC[C@@H]4[C@@]5(C)CC[C@H](O)C(C)(C)[C@@H]5CC[C@]43C)[C@@H]2C1 | 17.8
24 | CC(=O)O[C@H]1CC[C@]2(C)[C@H]3CC=C4[C@@H]5CC(C)(C)CC[C@]5(C(=O)N(C)CC(=O)NC(C)(C)C)CC[C@@]4(C)[C@]3(C)CC[C@H]2C1(C)C | 6.7
25 | CC1(C)CC[C@]2(C(=O)N(CC(=O)NCc3ccccc3)Cc3ccccc3)CC[C@]3(C)C(=CC[C@@H]4[C@@]5(C)CC[C@H](O)C(C)(C)[C@@H]5CC[C@]43C)[C@@H]2C1 | > 30
26 | CC(C)NC(=O)CN(Cc1ccoc1)C(=O)[C@]12CCC(C)(C)C[C@H]1C1=CC[C@@H]3[C@@]4(C)CC[C@H](O)C(C)(C)[C@@H]4CC[C@@]3(C)[C@]1(C)CC2 | 7.9

System: NIH3T3
Test: Cytotoxicity against mouse NIH/3T3 cells after 96 hrs by sulforhodamine-B assay
Type: cell-based
Conditions: NIH3T3, 96 h

Row | SMILES | EC50 [µM]
27 | C=CCN(CC(=O)NCc1ccccc1)C(=O)[C@]12CCC(C)(C)C[C@H]1C1=CC[C@@H]3[C@@]4(C)CC[C@H](O)C(C)(C)[C@@H]4CC[C@@]3(C)[C@]1(C)CC2 | > 30
28 | CC1(C)CC[C@]2(C(=O)N(CC(=O)NC(C)(C)C)Cc3ccccc3)CC[C@]3(C)C(=CC[C@@H]4[C@@]5(C)CC[C@H](O)C(C)(C)[C@@H]5CC[C@]43C)[C@@H]2C1 | 8.8
29 | CC(=O)O[C@H]1CC[C@]2(C)[C@H]3CC=C4[C@@H]5CC(C)(C)CC[C@]5(C(=O)N(C)CC(=O)NC(C)(C)C)CC[C@@]4(C)[C@]3(C)CC[C@H]2C1(C)C | 9.9
30 | CC1(C)CC[C@]2(C(=O)N(CC(=O)NCc3ccccc3)Cc3ccccc3)CC[C@]3(C)C(=CC[C@@H]4[C@@]5(C)CC[C@H](O)C(C)(C)[C@@H]5CC[C@]43C)[C@@H]2C1 | > 30
31 | CC(C)NC(=O)CN(Cc1ccoc1)C(=O)[C@]12CCC(C)(C)C[C@H]1C1=CC[C@@H]3[C@@]4(C)CC[C@H](O)C(C)(C)[C@@H]4CC[C@@]3(C)[C@]1(C)CC2 | 5.5
